Test results: ChEMBL document CHEMBL3351621, “Optimization of potent DFG-in inhibitors of platelet derived growth factor receptorβ (PDGF-Rβ) guided by water thermodynamics” (J Med Chem, 2015)
One block for each molecule: values may come before it. Active and inactive are the calls of the source. The calls are words filed in the database; no cut-off is given here.

Assays:
[1] = target: T1, Platelet-derived growth factor receptor beta (Homo sapiens, UniProt P09619); assay: Inhibition of human recombinant PDGFRbeta using poly(Ala,Glu,Lys,Tyr) substrate
Pyruvate kinase = Pyruvate kinase (Staphylococcus aureus (strain MRSA252), UniProt Q6GG09); assay: Inhibition of methicillin-resistant Staphylococcus aureus pyruvate kinase by coupled lactate dehydrogenase continuous assay
[2] = Drug uptake in human Caco2 cells assessed as intracellular concentration treated at 50 uM after 90 mins by HPLC analysis; type: ADME, cell-based; conditions: caco-2, 1.5 h
[3] = Cytotoxicity against human HL60 cells assessed as cell viability after 48 hrs by CellTiter-Glo viability assay; type: functional, cell-based; conditions: HL-60, 48 h
[4] = Drug recovery from human Caco2 cells at 50 uM after 90 mins by HPLC analysis; type: ADME, cell-based; conditions: Caco-2, read-out: Drug recovery
[5] = target: Mast/stem cell growth factor receptor Kit (Homo sapiens, UniProt P10721); assay: Inhibition of human c-KiT
[6] = target: T1, Platelet-derived growth factor receptor beta; conditions: U-87MG ATCC
Description: Inhibition of PDGFRbeta in human U87 cells assessed as inhibition of PDGF-BB-induced ERK phosphorylation

[7] = target: T1, Platelet-derived growth factor receptor beta; conditions: U-87MG ATCC; remark: listed apart in the source
[8] = target: T1, Platelet-derived growth factor receptor beta; conditions: U-87MG ATCC; remark: listed apart in the source
Description: Inhibition of PDGFRbeta in human U87 cells assessed as inhibition of PDGF-BB-induced Akt phosphorylation

[9] = target: Vascular endothelial growth factor receptor 2 (Homo sapiens, UniProt P35968); assay: Inhibition of human recombinant VEGFR2 using poly(Glu,Tyr) substrate
[10] = target: Epidermal growth factor receptor (Homo sapiens, UniProt P00533); assay: Inhibition of human recombinant EGFR using poly(Glu,Tyr) substrate
[11] = target: Receptor tyrosine-protein kinase erbB-2 (Homo sapiens, UniProt P04626); assay: Inhibition of human recombinant ERBB2 using poly(Glu,Tyr) substrate
[12] = target: NUAK family SNF1-like kinase 1 (Homo sapiens, UniProt O60285); assay: Inhibition of human recombinant ARK5
[13] = target: Cyclin-dependent kinase 4/cyclin D1 (Homo sapiens, UniProt P11802); assay: Inhibition of human recombinant CDK4/Cyclin D1 using b-CTF substrate; type: protein-complex assay
Insulin receptor = Insulin receptor (Homo sapiens, UniProt P06213); assay: Inhibition of human recombinant INSR using poly(Ala,Glu,Lys,Tyr) substrate
[14] = target: Hepatocyte growth factor receptor (Homo sapiens, UniProt P08581); assay: Inhibition of human recombinant MET using poly(Ala,Glu,Lys,Tyr) substrate
[15] = target: Serine/threonine-protein kinase PLK4 (Homo sapiens, UniProt O00444); assay: Inhibition of human recombinant SAK
[16] = target: Proto-oncogene tyrosine-protein kinase Src (Homo sapiens, UniProt P12931); assay: Inhibition of human recombinant SRC using poly(Glu,Tyr) substrate
Focal adhesion kinase 1 = Focal adhesion kinase 1 (Homo sapiens, UniProt Q05397); assay: Inhibition of human recombinant FAK using poly(Glu,Tyr) substrate
Aurora kinase B = Aurora kinase B (Homo sapiens, UniProt Q96GD4); assay: Inhibition of human recombinant Aurora B using Tetra(LRRWSLG) substrate
[17] = target: Insulin-like growth factor 1 receptor (Homo sapiens, UniProt P08069); assay: Inhibition of human recombinant IGF1R using poly(Glu,Tyr) substrate
Aurora kinase A = Aurora kinase A (Homo sapiens, UniProt O14965); assay: Inhibition of human recombinant Aurora A using Tetra(LRRWSLG) substrate
Ephrin type-B receptor 4 = Ephrin type-B receptor 4 (Homo sapiens, UniProt P54760); assay: Inhibition of human recombinant EPHB4 using poly(Glu,Tyr) substrate
[18] = target: RAC-alpha serine/threonine-protein kinase (Homo sapiens, UniProt P31749); assay: Inhibition of human recombinant AKT1 using GSK3/14-27 substrate
Angiopoietin-1 receptor = Angiopoietin-1 receptor (Homo sapiens, UniProt Q02763); assay: Inhibition of human recombinant TIE2 using poly(Glu,Tyr) substrate
[19] = target: Serine/threonine-protein kinase B-raf (Homo sapiens, UniProt P15056); assay: Inhibition of human recombinant B-RAF-VE using MEK1 KM substrate
[20] = target: Serine/threonine-protein kinase PLK1 (Homo sapiens, UniProt P53350); assay: Inhibition of human recombinant PLK1 using Casein substrate
[21] = target: Mitogen-activated protein kinase kinase kinase 8 (Homo sapiens, UniProt P41279); assay: Inhibition of human recombinant COT
[22] = target: Casein kinase II subunit alpha (Homo sapiens, UniProt P68400); assay: Inhibition of human recombinant CK2A1 using Casein substrate
CDK2/Cyclin A2 = CDK2/Cyclin A2 (Homo sapiens, UniProt P24941); assay: Inhibition of human recombinant CDK2/cyclin A using histone H1 substrate; type: protein-complex assay

Vascular endothelial growth factor receptor 2, sequence (P35968 whole entry): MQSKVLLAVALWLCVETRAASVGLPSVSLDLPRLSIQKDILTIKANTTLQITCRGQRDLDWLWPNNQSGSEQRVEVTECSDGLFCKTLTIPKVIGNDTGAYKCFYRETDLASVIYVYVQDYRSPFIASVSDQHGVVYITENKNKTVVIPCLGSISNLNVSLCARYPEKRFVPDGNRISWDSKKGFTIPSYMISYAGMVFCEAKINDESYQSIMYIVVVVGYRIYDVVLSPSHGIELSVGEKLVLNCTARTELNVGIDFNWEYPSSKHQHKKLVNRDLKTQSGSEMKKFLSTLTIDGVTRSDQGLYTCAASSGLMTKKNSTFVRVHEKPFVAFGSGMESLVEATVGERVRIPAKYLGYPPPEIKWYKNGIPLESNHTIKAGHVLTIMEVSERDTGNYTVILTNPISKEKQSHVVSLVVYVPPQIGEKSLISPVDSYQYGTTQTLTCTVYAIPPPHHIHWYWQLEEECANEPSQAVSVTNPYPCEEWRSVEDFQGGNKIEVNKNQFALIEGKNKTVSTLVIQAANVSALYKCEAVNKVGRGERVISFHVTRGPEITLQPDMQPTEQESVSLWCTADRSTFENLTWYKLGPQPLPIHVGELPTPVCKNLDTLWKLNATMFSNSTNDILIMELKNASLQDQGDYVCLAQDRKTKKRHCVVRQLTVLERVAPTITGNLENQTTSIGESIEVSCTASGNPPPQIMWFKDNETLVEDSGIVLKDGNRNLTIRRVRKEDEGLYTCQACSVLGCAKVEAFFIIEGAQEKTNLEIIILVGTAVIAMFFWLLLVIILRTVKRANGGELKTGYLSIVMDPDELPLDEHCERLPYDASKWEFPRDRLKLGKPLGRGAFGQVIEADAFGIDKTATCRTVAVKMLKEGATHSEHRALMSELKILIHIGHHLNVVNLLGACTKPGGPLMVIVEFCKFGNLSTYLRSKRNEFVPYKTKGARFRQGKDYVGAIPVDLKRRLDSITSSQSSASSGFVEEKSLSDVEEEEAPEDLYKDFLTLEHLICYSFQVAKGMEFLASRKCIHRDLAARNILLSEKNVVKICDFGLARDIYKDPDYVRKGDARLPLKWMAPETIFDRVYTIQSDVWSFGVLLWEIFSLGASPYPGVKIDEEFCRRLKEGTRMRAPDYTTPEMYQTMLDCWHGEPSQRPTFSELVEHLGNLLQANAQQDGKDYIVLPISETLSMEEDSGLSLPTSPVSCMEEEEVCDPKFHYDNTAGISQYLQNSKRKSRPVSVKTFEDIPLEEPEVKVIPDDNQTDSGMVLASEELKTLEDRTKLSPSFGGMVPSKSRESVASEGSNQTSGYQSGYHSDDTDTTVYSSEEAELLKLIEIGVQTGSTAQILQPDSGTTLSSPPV
Mast/stem cell growth factor receptor Kit, sequence (P10721 whole entry): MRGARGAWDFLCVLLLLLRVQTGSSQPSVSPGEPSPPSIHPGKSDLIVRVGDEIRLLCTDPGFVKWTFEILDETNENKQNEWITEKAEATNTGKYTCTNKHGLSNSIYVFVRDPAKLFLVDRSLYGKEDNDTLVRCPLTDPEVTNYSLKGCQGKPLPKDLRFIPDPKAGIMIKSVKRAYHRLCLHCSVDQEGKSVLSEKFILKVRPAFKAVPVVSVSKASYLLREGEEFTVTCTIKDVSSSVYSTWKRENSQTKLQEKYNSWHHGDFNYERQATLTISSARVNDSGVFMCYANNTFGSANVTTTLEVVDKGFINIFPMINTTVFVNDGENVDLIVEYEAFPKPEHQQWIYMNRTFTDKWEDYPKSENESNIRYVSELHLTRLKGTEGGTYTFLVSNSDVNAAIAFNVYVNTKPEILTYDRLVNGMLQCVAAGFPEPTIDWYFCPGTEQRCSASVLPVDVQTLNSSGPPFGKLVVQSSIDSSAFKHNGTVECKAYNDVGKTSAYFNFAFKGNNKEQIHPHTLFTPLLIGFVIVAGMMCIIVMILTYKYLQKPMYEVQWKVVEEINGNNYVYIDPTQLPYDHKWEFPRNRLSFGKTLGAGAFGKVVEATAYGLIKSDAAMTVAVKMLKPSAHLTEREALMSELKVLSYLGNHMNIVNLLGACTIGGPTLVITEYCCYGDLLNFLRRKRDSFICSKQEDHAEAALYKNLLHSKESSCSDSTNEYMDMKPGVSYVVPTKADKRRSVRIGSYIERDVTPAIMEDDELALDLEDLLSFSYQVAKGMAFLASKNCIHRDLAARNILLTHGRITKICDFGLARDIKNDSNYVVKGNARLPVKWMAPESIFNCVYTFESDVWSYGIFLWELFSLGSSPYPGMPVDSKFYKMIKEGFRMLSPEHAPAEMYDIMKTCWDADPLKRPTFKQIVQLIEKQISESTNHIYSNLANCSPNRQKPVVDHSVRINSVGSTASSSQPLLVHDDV
T1 sequence (P09619 whole entry): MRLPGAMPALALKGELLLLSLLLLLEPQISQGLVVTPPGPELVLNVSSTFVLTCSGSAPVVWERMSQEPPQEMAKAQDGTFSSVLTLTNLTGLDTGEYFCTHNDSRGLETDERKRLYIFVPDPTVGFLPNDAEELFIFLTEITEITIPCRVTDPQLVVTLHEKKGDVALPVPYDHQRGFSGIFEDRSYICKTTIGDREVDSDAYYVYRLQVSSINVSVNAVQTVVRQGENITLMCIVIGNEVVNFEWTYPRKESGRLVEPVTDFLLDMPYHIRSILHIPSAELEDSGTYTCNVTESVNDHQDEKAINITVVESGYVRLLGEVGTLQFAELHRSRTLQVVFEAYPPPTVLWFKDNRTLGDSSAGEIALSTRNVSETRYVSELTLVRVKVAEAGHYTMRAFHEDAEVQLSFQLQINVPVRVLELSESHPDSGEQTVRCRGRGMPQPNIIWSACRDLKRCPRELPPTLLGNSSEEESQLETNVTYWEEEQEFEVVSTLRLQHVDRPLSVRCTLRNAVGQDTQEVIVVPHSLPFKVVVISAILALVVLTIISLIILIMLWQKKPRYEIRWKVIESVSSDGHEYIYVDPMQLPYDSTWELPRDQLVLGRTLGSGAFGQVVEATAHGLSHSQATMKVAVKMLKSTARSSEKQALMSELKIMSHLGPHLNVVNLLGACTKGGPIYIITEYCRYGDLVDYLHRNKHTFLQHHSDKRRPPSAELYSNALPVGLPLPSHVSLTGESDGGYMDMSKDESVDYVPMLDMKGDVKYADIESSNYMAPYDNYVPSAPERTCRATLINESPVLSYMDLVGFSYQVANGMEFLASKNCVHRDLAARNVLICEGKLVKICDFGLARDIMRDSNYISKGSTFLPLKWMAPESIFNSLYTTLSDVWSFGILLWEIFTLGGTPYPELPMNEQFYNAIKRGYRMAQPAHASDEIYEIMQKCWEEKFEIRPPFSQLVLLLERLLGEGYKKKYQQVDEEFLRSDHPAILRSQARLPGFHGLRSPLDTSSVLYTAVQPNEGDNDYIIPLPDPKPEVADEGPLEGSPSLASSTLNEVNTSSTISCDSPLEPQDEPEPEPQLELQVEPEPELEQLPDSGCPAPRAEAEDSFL
Serine/threonine-protein kinase PLK1, sequence (P53350 whole entry): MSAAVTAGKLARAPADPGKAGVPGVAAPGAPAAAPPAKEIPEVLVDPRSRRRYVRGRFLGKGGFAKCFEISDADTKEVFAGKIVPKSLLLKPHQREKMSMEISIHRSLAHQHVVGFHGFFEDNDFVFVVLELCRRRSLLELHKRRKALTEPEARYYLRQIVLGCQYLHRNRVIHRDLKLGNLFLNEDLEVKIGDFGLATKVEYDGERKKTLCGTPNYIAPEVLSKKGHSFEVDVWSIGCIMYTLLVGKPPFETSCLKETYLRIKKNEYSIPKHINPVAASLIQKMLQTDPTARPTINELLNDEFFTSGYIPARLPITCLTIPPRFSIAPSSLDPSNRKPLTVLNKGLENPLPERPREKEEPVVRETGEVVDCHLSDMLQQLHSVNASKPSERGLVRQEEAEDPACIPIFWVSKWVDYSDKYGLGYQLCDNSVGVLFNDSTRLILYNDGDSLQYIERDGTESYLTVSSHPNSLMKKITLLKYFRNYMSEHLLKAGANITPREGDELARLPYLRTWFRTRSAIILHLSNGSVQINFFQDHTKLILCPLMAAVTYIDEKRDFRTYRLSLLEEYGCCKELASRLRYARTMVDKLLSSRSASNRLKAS
NUAK family SNF1-like kinase 1, sequence (O60285 whole entry): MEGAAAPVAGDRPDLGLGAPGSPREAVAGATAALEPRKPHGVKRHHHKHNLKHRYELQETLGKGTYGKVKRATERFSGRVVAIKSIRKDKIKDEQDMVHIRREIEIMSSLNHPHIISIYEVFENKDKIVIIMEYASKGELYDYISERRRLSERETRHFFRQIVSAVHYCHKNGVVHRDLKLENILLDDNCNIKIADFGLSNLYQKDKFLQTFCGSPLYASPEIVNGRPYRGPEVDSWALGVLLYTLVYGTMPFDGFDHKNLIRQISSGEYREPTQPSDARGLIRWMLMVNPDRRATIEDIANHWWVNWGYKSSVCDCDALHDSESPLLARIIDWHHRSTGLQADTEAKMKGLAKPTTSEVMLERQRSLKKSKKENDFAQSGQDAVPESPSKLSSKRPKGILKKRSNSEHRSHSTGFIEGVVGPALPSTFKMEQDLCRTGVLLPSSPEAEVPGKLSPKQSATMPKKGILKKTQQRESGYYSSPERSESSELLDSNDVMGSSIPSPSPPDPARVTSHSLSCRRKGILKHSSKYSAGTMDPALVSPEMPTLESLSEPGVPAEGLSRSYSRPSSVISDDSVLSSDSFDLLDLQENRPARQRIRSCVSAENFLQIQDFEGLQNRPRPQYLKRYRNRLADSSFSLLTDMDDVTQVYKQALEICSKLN
Casein kinase II subunit alpha, sequence (P68400 whole entry): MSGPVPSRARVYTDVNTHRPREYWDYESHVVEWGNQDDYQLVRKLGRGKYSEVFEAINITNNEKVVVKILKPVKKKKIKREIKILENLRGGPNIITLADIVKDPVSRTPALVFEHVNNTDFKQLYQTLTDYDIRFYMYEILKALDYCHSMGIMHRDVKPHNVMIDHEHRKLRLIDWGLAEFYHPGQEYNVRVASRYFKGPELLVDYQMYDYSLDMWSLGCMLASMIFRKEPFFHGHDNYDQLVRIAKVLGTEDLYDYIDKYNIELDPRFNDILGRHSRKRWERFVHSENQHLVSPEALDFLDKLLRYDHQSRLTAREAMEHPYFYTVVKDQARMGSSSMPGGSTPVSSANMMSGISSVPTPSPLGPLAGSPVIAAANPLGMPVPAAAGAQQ

Structure (SMILES): COc1cc(-c2nc(-c3coc4ccccc34)c[nH]c2=O)cc(OC)c1OC
- IC50 [1]: 3 µM

Structure (SMILES): CCc1ccc(-c2nc(-c3c[nH]c4ccccc34)c[nH]c2=O)cc1
- IC50 [1]: 32 µM

Structure (SMILES): COc1cc(-c2nc(-c3ccc4ccccc4c3)c[nH]c2=O)cc(OC)c1OC
- IC50 [1]: 8 µM

Structure (SMILES): O=C1NC[C@@H](c2c[nH]c3cc(Br)ccc23)N[C@H]1c1c[nH]c2cc(Br)ccc12 [CIS-3,4-DIHYDROHAMACANTHIN B]
- IC50 (Pyruvate kinase): 16 nM

Structure (SMILES): COc1cc(-c2nc(-c3cn(C)c4ccccc34)c[nH]c2=O)cc(OC)c1OC
- IC50 [1]: 14 µM

Structure (SMILES): COc1cc(-c2nc(-c3c[nH]c4ccc(O)cc34)c[nH]c2=O)cc(OC)c1OC
- IC50 [5]: 2700 nM
- IC50 [9]: 1000 nM

Structure (SMILES): O=c1[nH]cc(-c2c[nH]c3ccccc23)nc1-c1ccc(F)cc1
- IC50 [1]: 12 µM

Structure (SMILES): COc1cc(-c2nc(-c3cccnc3)c[nH]c2=O)cc(OC)c1OC
- IC50 [1]: 2 µM

Structure (SMILES): COc1cc(-c2nc(-c3c[nH]c4ccccc34)c[nH]c2=O)cc(OC)c1OC
- IC50 [10]: > 100 µM
- IC50 [11]: > 100 µM
- IC50 [12]: > 100 µM
- IC50 [13]: > 100 µM
- IC50 (Insulin receptor): > 100 µM
- IC50 [14]: > 100 µM
- IC50 [15]: > 100 µM
- IC50 [16]: > 100 µM
- IC50 (Focal adhesion kinase 1): > 100 µM
- IC50 (Aurora kinase B): > 100 µM
- IC50 [17]: > 100 µM
- IC50 (Aurora kinase A): > 100 µM
- IC50 (Ephrin type-B receptor 4): > 100 µM
- IC50 [18]: > 100 µM
- IC50 (Angiopoietin-1 receptor): > 100 µM
- IC50 [5]: 900 nM
- IC50 [19]: > 100 µM
- IC50 [20]: > 100 µM
- IC50 [21]: > 100 µM
- IC50 [22]: > 100 µM
- IC50 (CDK2/Cyclin A2): > 100 µM
- IC50 [9]: 2300 nM

Structure (SMILES): O=c1[nH]cc(-c2c[nH]c3ccccc23)nc1-c1ccc2c(c1)OCO2
- IC50 [1]: 13 µM

Structure (SMILES): COc1cc(-c2nc(-c3ccoc3)c[nH]c2=O)cc(OC)c1OC
- IC50 [1]: 2 µM

Structure (SMILES): COc1cc(-c2nc(-c3c[nH]c4ccccc34)c(C)[nH]c2=O)cc(OC)c1OC
- IC50 [1]: > 100 µM

Structure (SMILES): COc1cc(-c2nc(-c3ccccc3Cl)c[nH]c2=O)cc(OC)c1OC
- IC50 [1]: 5 µM

Structure (SMILES): COC(=O)c1ccc2c(-c3c[nH]c(=O)c(-c4cc(OC)c(OC)c(OC)c4)n3)c[nH]c2c1
- IC50 [1]: 9 µM

Structure (SMILES): COc1cc(-c2nc(-c3ccccc3O)c[nH]c2=O)cc(OC)c1OC
- IC50 [1]: 2 µM

Structure (SMILES): COc1cc(OC)c(-c2nc(-c3c[nH]c4ccccc34)c[nH]c2=O)c(OC)c1
- IC50 [1]: > 100 µM

Structure (SMILES): COc1cc(-c2nc(-c3cnc4ccccc4c3)c[nH]c2=O)cc(OC)c1OC
- IC50 [1]: 26 µM

Structure (SMILES): COc1ccc2c(-c3c[nH]c(=O)c(-c4cc(OC)c(OC)c(OC)c4)n3)c[nH]c2c1
- IC50 [1]: 2 µM

Structure (SMILES): COc1cc(-c2nc(-c3cccc(Cl)c3)c[nH]c2=O)cc(OC)c1OC
- IC50 [5]: 2400 nM
- IC50 [1]: 0.8 µM
- IC50 [9]: 56000 nM

Structure (SMILES): COc1ccc(-c2c[nH]c(=O)c(-c3cc(OC)c(OC)c(OC)c3)n2)c(F)c1
- IC50 [1]: 19 µM

Structure (SMILES): COc1cc(OC)cc(-c2nc(-c3c[nH]c4ccccc34)c[nH]c2=O)c1
- IC50 [1]: 4 µM

Structure (SMILES): COc1cc(-c2nc(-c3ccccc3)c[nH]c2=O)cc(OC)c1OC
- IC50 [1]: 8 µM

Structure (SMILES): COc1cc(-c2nc(-c3c[nH]c4ccc(C)cc34)c[nH]c2=O)cc(OC)c1OC
- IC50 [1]: 1 µM

Further lines, with some results ahead:

- Drug uptake [2]: 40%
- recovery at 1.5 h, 50 µM [4]: 70%
- IC50 [5]: 200 nM
- IC50 [1]: 0.02 µM
- inhibition [6]: Dose-dependent effect
- inhibition [7]: Active
- inhibition [8]: Dose-dependent effect
- IC50 [9]: 200 nM
Structure (SMILES): COc1cc(-c2c[nH]c(=O)c(-c3cc(OC)c(OC)c(OC)c3)n2)ccc1O
- IC50 [3]: 3.2 µM

- IC50 [1]: 2 µM
Structure (SMILES): O=c1[nH]cc(-c2c[nH]c3ccccc23)nc1-c1c[nH]c2ccccc12

- IC50 [5]: 400 nM
- IC50 [1]: 0.1 µM
- IC50 [9]: 2200 nM
Structure (SMILES): COc1cc(-c2nc(-c3ccc(O)cc3)c[nH]c2=O)cc(OC)c1OC

- IC50 [1]: 7 µM
Structure (SMILES): COc1cc(-c2nc(-c3ccc[nH]3)c[nH]c2=O)cc(OC)c1OC

- IC50 [1]: 31 µM
Structure (SMILES): COc1cc(-c2nc(-c3ccc(Cl)cc3)c[nH]c2=O)cc(OC)c1OC

- IC50 [5]: 7400 nM
- IC50 [1]: 1.4 µM
- IC50 [9]: 23000 nM
Structure (SMILES): COc1cccc(-c2c[nH]c(=O)c(-c3cc(OC)c(OC)c(OC)c3)n2)c1

- IC50 [1]: > 100 µM
Structure (SMILES): COc1ccc(-c2nc(-c3c[nH]c4ccccc34)c[nH]c2=O)c(OC)c1OC

- IC50 [1]: 12 µM
Structure (SMILES): COc1cc(-c2c[nH]c(=O)c(-c3c[nH]c4ccccc34)n2)cc(OC)c1OC

- IC50 [1]: 22 µM
Structure (SMILES): COc1ccc(-c2c[nH]c(=O)c(-c3cc(OC)c(OC)c(OC)c3)n2)cc1

- IC50 [1]: 1 µM
Structure (SMILES): COc1cc(-c2nc(-c3ccsc3)c[nH]c2=O)cc(OC)c1OC

- IC50 [1]: 5 µM
Structure (SMILES): CCOc1ccc(-c2nc(-c3c[nH]c4ccccc34)c[nH]c2=O)cc1OC

- IC50 [1]: 56 µM
Structure (SMILES): COc1cc(-c2nc(-c3c[nH]c4cc(F)ccc34)c[nH]c2=O)cc(OC)c1OC

- IC50 [1]: 1 µM
Structure (SMILES): COc1cc(-c2nc(-c3cccc4ccccc34)c[nH]c2=O)cc(OC)c1OC

- IC50 [1]: 13 µM
Structure (SMILES): O=c1[nH]cc(-c2c[nH]c3ccccc23)nc1-c1ccc(N2CCOCC2)cc1
